Experimental data from ChEMBL document CHEMBL4368860, “Structure activity relationship of 2-arylalkynyl-adenine derivatives as human A3 adenosine receptor antagonists” (Medchemcomm, 2018).

Tests used:
Adenosine receptor A1 [1] = molecular target: T1, Adenosine receptor A1 (Homo sapiens, UniProt P30542); assay: Displacement of [3H]DPCPX from recombinant human A1 receptor expressed in CHO cell membranes
T1 sequence (P30542 whole entry): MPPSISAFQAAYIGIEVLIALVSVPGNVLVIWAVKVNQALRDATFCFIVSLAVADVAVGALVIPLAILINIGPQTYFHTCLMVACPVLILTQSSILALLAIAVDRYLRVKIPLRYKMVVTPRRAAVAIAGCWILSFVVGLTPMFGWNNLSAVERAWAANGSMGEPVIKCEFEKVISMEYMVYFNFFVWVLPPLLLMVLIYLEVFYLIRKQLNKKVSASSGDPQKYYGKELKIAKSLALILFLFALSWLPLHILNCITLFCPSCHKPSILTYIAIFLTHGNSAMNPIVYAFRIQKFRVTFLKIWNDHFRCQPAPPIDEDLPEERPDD

Adenosine receptor A2a [2] = molecular target: T2, Adenosine receptor A2a (Homo sapiens, UniProt P29274); assay: Displacement of [3H]ZM241385 from human A2A receptor expressed in HEK293 cell membranes at 10 uM; conditions: for inhibition at 10 µM: HEK293 cell membranes expressing human A2A receptor, probe [3H]ZM241385; for inhibition (INH): hek293, 10 µM
T2 sequence (P29274 whole entry): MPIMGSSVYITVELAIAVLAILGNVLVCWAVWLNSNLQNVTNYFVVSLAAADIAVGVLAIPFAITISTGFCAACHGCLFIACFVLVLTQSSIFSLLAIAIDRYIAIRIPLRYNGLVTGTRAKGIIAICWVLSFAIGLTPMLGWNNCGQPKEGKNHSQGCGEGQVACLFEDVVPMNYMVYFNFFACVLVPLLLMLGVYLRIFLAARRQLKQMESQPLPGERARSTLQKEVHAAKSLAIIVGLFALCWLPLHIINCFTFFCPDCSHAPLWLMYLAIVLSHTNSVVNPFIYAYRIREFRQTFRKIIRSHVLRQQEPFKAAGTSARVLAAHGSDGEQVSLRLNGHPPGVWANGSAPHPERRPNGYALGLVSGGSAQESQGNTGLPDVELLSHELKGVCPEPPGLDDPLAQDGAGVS

Adenosine receptor A3 = molecular target: T3, Adenosine receptor A3 (Homo sapiens, UniProt P0DMS8); assay: Displacement of [125I]I-AB-MECA from recombinant human adenosine A3 receptor expressed in CHO cell membranes
T3 sequence (P0DMS8 whole entry): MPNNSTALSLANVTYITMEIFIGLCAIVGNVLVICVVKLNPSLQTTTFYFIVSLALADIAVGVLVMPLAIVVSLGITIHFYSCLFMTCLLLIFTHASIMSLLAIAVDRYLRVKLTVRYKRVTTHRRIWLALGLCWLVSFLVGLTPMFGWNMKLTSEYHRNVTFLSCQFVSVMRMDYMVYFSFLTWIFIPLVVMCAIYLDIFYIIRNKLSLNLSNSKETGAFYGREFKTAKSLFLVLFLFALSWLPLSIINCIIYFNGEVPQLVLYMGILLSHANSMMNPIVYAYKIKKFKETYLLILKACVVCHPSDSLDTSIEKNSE

Histamine H2 receptor = Histamine H2 receptor (Homo sapiens, UniProt P25021); assay: Displacement of [3H]Cimetidine from human H2 receptor expressed in HEK cells after 90 mins by scintillation counting method; format: cell-based
Chain of Histamine H2 receptor (P25021 whole entry): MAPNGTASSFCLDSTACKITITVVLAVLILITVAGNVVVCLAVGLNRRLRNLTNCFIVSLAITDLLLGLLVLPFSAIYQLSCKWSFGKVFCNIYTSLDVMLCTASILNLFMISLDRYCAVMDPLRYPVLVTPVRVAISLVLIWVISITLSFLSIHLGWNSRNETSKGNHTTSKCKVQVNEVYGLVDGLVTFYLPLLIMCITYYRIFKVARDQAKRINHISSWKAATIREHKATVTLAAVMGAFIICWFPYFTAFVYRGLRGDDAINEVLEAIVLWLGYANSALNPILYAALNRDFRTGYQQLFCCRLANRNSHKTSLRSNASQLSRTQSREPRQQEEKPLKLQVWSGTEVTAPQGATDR

[3] = molecular target: T4, Adenosine receptor A3 (Mus musculus) (UniProt Q61618); assay: Displacement of [125I]I-AB-MECA from recombinant mouse adenosine A3 receptor expressed in HEK293 cell membranes at 10 uM
T4 sequence (whole entry): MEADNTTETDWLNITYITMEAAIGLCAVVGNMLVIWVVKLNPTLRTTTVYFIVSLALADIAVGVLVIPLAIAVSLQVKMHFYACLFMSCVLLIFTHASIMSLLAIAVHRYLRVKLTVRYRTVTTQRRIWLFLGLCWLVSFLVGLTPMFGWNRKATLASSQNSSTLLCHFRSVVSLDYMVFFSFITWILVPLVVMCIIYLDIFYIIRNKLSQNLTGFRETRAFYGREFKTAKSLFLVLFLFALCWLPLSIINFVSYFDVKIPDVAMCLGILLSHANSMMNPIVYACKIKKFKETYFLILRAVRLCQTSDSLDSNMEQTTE

Adenosine receptor A2b = molecular target: T5, Adenosine receptor A2b (Homo sapiens, UniProt P29275); assay: Displacement of [3H]-MRS-1754 from human A2B receptor expressed in HEK293 cell membranes at 10 uM; conditions: HEK293 cell membranes expressing human A2B receptor, probe [3H]-MRS-1754
T5 sequence (P29275 whole entry): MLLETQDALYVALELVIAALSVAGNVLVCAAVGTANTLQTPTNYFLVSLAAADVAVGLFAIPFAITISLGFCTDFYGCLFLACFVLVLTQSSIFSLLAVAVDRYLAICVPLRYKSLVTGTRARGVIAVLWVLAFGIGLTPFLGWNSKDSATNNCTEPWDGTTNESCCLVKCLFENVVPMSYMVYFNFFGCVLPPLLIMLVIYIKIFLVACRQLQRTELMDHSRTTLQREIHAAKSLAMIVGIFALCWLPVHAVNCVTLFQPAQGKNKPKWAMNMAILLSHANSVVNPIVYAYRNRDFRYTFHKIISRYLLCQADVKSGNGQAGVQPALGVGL

[4] = molecular target: 5-hydroxytryptamine receptor 2C (Homo sapiens, UniProt P28335); assay: Displacement of [3H]-Mesulergine from human 5-HT2C receptor expressed in Flp-In-HEK cell by radioligand binding assay
Chain of 5-hydroxytryptamine receptor 2C (P28335 whole entry): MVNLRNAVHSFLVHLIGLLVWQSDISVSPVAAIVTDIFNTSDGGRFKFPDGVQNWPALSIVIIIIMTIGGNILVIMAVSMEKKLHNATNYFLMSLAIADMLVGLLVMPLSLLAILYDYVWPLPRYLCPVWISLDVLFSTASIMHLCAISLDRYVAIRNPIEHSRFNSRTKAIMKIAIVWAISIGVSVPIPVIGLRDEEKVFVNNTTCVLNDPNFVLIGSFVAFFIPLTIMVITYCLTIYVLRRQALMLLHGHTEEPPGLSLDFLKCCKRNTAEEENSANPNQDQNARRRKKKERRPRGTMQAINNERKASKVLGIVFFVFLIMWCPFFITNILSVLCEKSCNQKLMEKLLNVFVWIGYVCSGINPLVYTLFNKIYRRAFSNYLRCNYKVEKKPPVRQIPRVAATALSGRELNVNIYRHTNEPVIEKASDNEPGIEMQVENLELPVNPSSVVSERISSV

[5] = molecular target: T6, Adenosine receptor A1 (Homo sapiens) (UniProt P30542); assay: Displacement of [3H]DPCPX from recombinant human A1 receptor expressed in CHO cell membranes at 10 uM
T6 sequence (whole entry): T1 sequence (P30542 whole entry)

[6] = molecular target: Adenosine receptor A3 (Homo sapiens) (UniProt P0DMS8); assay: Displacement of [125I]I-AB-MECA from recombinant human adenosine A3 receptor expressed in CHO cell membranes at 10 uM
[7] = molecular target: Alpha-2C adrenergic receptor (Homo sapiens, UniProt P18825); assay: Displacement of [3H]Rauwolscine from human alpha 2C adrenergic receptor expressed in MDCK cells by radioligand binding assay; format: cell-based
Chain of Alpha-2C adrenergic receptor (P18825 whole entry): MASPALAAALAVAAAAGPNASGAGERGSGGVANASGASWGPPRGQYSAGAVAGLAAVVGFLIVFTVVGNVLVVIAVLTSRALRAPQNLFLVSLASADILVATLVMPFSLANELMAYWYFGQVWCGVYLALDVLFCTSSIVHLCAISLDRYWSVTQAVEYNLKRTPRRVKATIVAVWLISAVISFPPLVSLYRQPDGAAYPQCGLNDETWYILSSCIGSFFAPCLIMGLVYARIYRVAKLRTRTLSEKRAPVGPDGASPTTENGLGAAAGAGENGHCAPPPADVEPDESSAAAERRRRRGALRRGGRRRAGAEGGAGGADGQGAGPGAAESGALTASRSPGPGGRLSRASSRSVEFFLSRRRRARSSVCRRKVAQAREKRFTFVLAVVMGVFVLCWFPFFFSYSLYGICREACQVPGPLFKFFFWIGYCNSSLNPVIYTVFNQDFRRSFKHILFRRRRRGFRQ

[8] = molecular target: 5-hydroxytryptamine receptor 2B (Homo sapiens, UniProt P41595); assay: Displacement of [3H]-LSD from human 5-HT2B receptor expressed in HEK cell by radioligand binding assay
Chain of 5-hydroxytryptamine receptor 2B (P41595 whole entry): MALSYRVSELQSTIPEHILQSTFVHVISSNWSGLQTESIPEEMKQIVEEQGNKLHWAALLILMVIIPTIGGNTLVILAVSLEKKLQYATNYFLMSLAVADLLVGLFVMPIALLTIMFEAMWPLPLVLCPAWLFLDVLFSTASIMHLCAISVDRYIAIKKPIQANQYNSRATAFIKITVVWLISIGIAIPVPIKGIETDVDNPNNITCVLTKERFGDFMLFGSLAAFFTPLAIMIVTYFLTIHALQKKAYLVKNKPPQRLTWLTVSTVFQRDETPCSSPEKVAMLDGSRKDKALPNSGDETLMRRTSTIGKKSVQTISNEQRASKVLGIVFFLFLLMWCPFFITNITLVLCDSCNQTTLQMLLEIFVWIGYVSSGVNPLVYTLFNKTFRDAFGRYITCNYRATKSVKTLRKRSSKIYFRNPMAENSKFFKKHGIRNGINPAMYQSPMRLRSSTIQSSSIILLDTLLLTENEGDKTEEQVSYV

Adenosine receptor A1 [9] = molecular target: T7, Adenosine receptor A1 (Rattus norvegicus, UniProt P25099); assay: Displacement of [3H]DPCPX from rat A1 receptor
T7 sequence (P25099 whole entry): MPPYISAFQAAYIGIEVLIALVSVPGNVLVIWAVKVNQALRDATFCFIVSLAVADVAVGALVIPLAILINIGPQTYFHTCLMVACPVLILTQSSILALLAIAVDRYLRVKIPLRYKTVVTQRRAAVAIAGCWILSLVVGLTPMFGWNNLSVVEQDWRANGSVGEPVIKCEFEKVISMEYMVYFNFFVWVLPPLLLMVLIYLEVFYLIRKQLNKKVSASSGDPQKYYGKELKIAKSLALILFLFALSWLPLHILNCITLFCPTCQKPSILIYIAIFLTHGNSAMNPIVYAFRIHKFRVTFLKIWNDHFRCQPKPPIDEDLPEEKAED

Adenosine receptor A2a [10] = molecular target: Adenosine receptor A2a (Rattus norvegicus, UniProt P30543); assay: Displacement of [3H]ZM241385 from rat A2A receptor
Chain of Adenosine receptor A2a (Rattus norvegicus, UniProt P30543) (P30543 whole entry): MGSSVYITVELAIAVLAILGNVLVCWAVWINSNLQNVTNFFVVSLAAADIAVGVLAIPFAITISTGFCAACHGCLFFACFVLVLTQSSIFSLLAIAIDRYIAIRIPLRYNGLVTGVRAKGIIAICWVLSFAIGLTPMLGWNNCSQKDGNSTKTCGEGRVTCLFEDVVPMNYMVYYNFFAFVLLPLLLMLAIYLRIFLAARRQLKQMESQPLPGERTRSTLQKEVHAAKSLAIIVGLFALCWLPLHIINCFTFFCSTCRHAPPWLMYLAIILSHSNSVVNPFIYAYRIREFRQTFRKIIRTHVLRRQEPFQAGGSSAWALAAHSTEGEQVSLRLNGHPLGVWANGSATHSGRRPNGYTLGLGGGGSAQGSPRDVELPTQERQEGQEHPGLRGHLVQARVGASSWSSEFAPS

[11] = molecular target: T8, Sigma intracellular receptor 2 (Rattus norvegicus, UniProt Q5U3Y7); assay: Displacement of [3H]-DTG from sigma 2 receptor in rat PC12 cells by radioligand binding assay; format: cell-based
T8 sequence (Q5U3Y7 whole entry): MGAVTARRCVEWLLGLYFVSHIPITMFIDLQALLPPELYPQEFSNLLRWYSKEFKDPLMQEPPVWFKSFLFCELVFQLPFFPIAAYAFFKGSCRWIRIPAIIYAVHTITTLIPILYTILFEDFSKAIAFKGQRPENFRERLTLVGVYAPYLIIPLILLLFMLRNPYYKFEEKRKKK

[12] = molecular target: Sigma non-opioid intracellular receptor 1 (Cavia porcellus, UniProt Q60492); assay: Displacement of [3H]-(+)-pentazocine from sigma-1 receptor in guinea pig by radioligand binding assay
Chain of Sigma non-opioid intracellular receptor 1 (Q60492 whole entry): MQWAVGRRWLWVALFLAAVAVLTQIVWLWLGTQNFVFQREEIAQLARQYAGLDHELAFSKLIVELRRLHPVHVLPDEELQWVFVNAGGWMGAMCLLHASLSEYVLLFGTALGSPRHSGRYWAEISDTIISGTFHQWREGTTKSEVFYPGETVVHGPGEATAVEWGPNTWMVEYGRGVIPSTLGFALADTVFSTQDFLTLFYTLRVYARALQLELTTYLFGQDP

Adenosine receptor A2a [13] = molecular target: T2, Adenosine receptor A2a; assay: Displacement of [3H]ZM241385 from human A2A receptor expressed in HEK293 cell membranes

`Clc1ccc(C#Cc2nc(N[C@H]3C[C@H]4CC[C@@H]3C4)c3nc[nH]c3n2)s1` was tested, and the Ki (Adenosine receptor A1 [1]) was 1050 nM, the inhibition at 10 µM (Adenosine receptor A2a [2]) was 37% and the Ki (Adenosine receptor A3) was 20.6 nM. It also gave a Ki (Histamine H2 receptor) of 3640 nM.

For `Clc1ccc(C#Cc2nc(NCCc3ccccc3)c3nc[nH]c3n2)s1`, the Ki (Adenosine receptor A1 [1]) was 1750 nM, the inhibition at 10 µM (Adenosine receptor A2a [2]) was 21% and the Ki (Adenosine receptor A3) was 13 nM. The inhibition [3] was 7%, the inhibition at 10 µM (Adenosine receptor A2b) was -10.4% and the Ki [4] was 1190 nM. The Ki (Histamine H2 receptor) was 520 nM.

`Oc1ccc(CCNc2nc(C#Cc3ccc(Cl)s3)nc3[nH]cnc23)cc1O` was tested, and the inhibition [5] was 28%, the inhibition at 10 µM (Adenosine receptor A2a [2]) was 5% and the inhibition [6] was 20%. For the same compound, the Ki [7] was 3520 nM and the Ki [8] was 1210 nM.

Work on `OC[C@H]1O[C@@H](n2cnc3c(NCc4cccc(Cl)c4)ncnc32)[C@H](O)[C@@H]1O` yielded a Ki (Adenosine receptor A1 [9]) of 45 nM and a Ki (Adenosine receptor A2a [10]) of over 10000 nM.

Compound `COc1cc(CCNc2nc(C#Cc3ccc(Cl)s3)nc3[nH]cnc23)ccc1O` has an inhibition [5] of 15%, an inhibition at 10 µM (Adenosine receptor A2a [2]) of -3% and a Ki (Adenosine receptor A3) of 6820 nM. It also gave a Ki [11] of 370 nM and a Ki [12] of 1390 nM.

`CCCNc1nc(C#Cc2ccc(Cl)s2)nc2c1ncn2[C@H]1[C@H](O)[C@H](O)[C@]2(C(=O)NC)C[C@H]12` was tested, and the “inhibition (INH)” value (Adenosine receptor A2a [2]) was 34%.

`OC[C@H]1O[C@@H](n2cnc3c(NCCc4ccccc4)ncnc32)[C@H](O)[C@@H]1O` showed a Ki (Adenosine receptor A1 [1]) of 12.9 nM, a Ki (Adenosine receptor A1 [9]) of 24 nM and a Ki (Adenosine receptor A2a [13]) of 676 nM. For the same compound, the Ki (Adenosine receptor A2a [10]) was 161 nM and the Ki (Adenosine receptor A3) was 2.1 nM.

`CCNc1nc(Cl)nc2c1ncn2[C@H]1[C@H](O)[C@H](O)[C@@H]2C[C@@H]21` was tested, and the “inhibition (INH)” value (Adenosine receptor A2a [2]) was 11%.

In the case of `OC[C@H]1O[C@@H](n2cnc3c(N[C@H]4C[C@H]5CC[C@@H]4C5)ncnc32)[C@H](O)[C@@H]1O`, the Ki (Adenosine receptor A1 [1]) is reported as 0.38 nM, the Ki (Adenosine receptor A1 [9]) is reported as 0.34 nM and the Ki (Adenosine receptor A2a [13]) is reported as over 10000 nM. The Ki (Adenosine receptor A3) was 915 nM.

With `CNC(=O)[C@@]12C[C@@H]1[C@@H](n1cnc3c(NC)nc(C#Cc4ccc(Cl)s4)nc31)[C@H](O)[C@@H]2O` the inhibition [5] was under 10% and the “inhibition (INH)” value (Adenosine receptor A2a [2]) was 24%.

For `CC#Cc1nc(NC(C2CC2)C2CC2)c2nc[nH]c2n1`, the Ki (Adenosine receptor A1 [1]) was 2870 nM, the Ki (Adenosine receptor A2a [13]) was 3240 nM and the Ki (Adenosine receptor A3) was 43.2 nM. It also gave an inhibition at 10 µM (Adenosine receptor A2b) of 22.7%.
